{"source": "paper PMC10709007", "about": "“GPR162 is a beta cell CART receptor” (iScience, 2023)", "system": "GPR162", "assay": "Proximity ligation assay (PLA) CART-GPR162 in INS-1 832/13 cells", "format": "binding, rat", "experimental": "INS-1 832/13 cells were seeded in 8-well tissue culture chambers (Sarstedt, Nümbrecht, Germany). 10^−7M rat CARTp55-102 (Phoenix Pharmaceuticals, Burlingame, CA) was added to fresh media and cells were incubated for 5 min in a humidified atmosphere (37°C, 5% CO2). Cells were rinsed quickly in ice-cold 1XPBS and then washed twice with ice-cold PBS. Cells were then fixed for 20 min in 4% paraformaldehyde, washed 2 × 10 min in 1XPBS and permeabilized for 15 min in PBS +0.25% Triton X-100. Proximity ligation assay (PLA) (DuoLink In situ Red Starter Kit Goat/Rabbit, Sigma Aldrich) was performed according to the instructions provided by the manufacturers. The following antibody combinations were used for the PLA: goat anti-GPR162 (sc-138323, dilution 1:500, Santa Cruz) with rabbit anti-CART (code 2059A, dilution 1:5000, kindly provided by Dr. Jes T. Clausen, Novo Nordisk, Måløv, Denmark), and goat anti-CART (code sc-18068, dilution 1:400, Santa Cruz) with rabbit anti-GPR162 (code PA5-33655, dilution 1:500, Thermo Scientific). Anti-rabbit GPR160 (code PA5-33650) was combined with anti-goat CART (code sc-18068 from Santa Cruz). Anti-rabbit GNA13 (PA5-100644) was combined with anti-goat GPR162 (sc-138323). Negative controls were omission of both antibodies and the combination of the CART antibody with an antibody toward a receptor with a known ligand. […]", "note": "Where no end group is shown, it is not given here."}
{"substance": "CARTp55-102: Rat, mouse CARTp55-102 (Phoenix Pharmaceuticals, Cat#003-62); human form Cat#003-60; cocaine- and amphetamine-regulated transcript peptide (IPIYEKKYGQVPMCDAGEQCAVRKGARIGKLCDCPRGTSCNSFLLKCL; ends and bridges not checked; cysteine pairing not given here)", "values": [{"measurement": "CART-GPR162 interaction (PLA)", "setting": "10^-7M rat CARTp55-102, 5 min, 37°C, n = 8", "value": "confirmed an interaction between GPR162 and CART"}, {"measurement": "Reduction of CART-GPR162 interaction (PLA) in Gpr162 siRNA cells", "setting": "Gpr162 siRNA vs control cells, 10^-7M CARTp55-102, n = 8, p < 0.005", "value": 90, "unit": "%"}]}
